Columns and labels:
Assay type in all cases: cell-based, human
[1] = test system: CD4+ clone C111 T cells; 1847 CD40L B cells (HLA-DRβ1*1301); assay: Peptide-pulsed 1847 CD40L B cells, IFN-γ release from clone C111 by ELISA; details: 18 hrs
Description: (§1) Peptides of 20 or 21 amino acids in length that overlapped by 15 amino acids that were encoded by the long open reading frame of the original cDNA clone that was isolated were synthesised by solid-phase method using a peptide synthesiser (AMS 422; Gilson Co., Inc. Middleton, Wis.). The purity of the peptides was verified by mass spectrometry (Tuft's Core Facility, Boston, Mass.). […] After three hours, 1-5×10^4 T cells were added to the wells in 150 μl/well of medium and incubated for 18 hours at 37° C. and 5% CO2, followed by measurement of INF-γ release by ELISA.
(§2) Peptides that were 20 or 21 amino acids in length and that overlapped by either 14 or 16 amino acids, were than synthesised and tested for their ability to sensitise target cells for recognition by C111 T cells. Since autologous normal B cells could not be efficiently expanded, allogeneic normal B cells expressing either DRβ1*0402 or DRβ1*1301 were used to carry out these assays.
(§3) The 1681 and 1847 CD40L stimulated normal B cell lines shared expression of HLA-DRβ1*0402 and HLA-DRβ1*1301 molecules, respectively, with the autologous tumour cell line. These cells were incubated with the panel of peptides and then tested for their ability to stimulate cytokine release from C111 T cells.

[2] = test system: CD4+ clone C111 T cells; 1681 CD40L B cells (HLA-DRβ1*0402); assay: Peptide-pulsed 1681 CD40L B cells, IFN-γ release from clone C111 by ELISA; details: 18 hrs
Description: as §1, §2, §3

[3] = test system: C111 T cells; assay: Peptide pulsing of target cells expressing HLA-DRβ1*0402 or 1301, cytokine release from C111 T cells; details: 1681 and 1847 CD40L B cells pulsed with peptide
Description: Peptides of 20 or 21 amino acids in length that overlapped by 15 amino acids that were encoded by the long open reading frame of the original cDNA clone that was isolated were synthesised by solid-phase method using a peptide synthesiser (AMS 422; Gilson Co., Inc. Middleton, Wis.). The purity of the peptides was verified by mass spectrometry (Tuft's Core Facility, Boston, Mass.). Allogeneic B cells (1×10^5 cells/well) that expressed either the DRβ1*0402 or the DRβ1*1301 molecules were incubated with 50 μg/ml in 100 μl/well of ISCOVE'S medium plus 10% HS in flat bottom-96-well plates. After three hours, 1-5×10^4 T cells were added to the wells in 150 μl/well of medium and incubated for 18 hours at 37° C. and 5% CO2, followed by measurement of INF-γ release by ELISA.
as §2
The 1681 and 1847 CD40L stimulated normal B cell lines shared expression of HLA-DRβ1*0402 and HLA-DRβ1*1301 molecules, respectively, with the autologous tumour cell line. […]

[4] = 1847 CD40LB pulsed with peptide 12.5 μg/ml
[5] = 1847 CD40LB pulsed with peptide 25 μg/ml
[6] = 1847 CD40LB pulsed with peptide 26.25 μg/ml
[7] = 1847 CD40LB pulsed with peptide 50 μg/ml
[8] = 1847 CD40LB pulsed with peptide 100 μg/ml
[9] = 1681 CD40LB pulsed with peptide 12.5 μg/ml
[10] = 1681 CD40LB pulsed with peptide 25 μg/ml
[11] = 1681 CD40LB pulsed with peptide 26.25 μg/ml
[12] = 1681 CD40LB pulsed with peptide 50 μg/ml
[13] = 1681 CD40LB pulsed with peptide 100 μg/ml

ASAFEIFSTFPPTLYQDDTL [COA-1-derived overlapping peptide]
IFN-γ release from clone C111 [1, 4]: < 7.8 pg/mL
IFN-γ release from clone C111 [1, 5]: < 7.8 pg/mL
IFN-γ release from clone C111 [1, 6]: < 7.8 pg/mL
IFN-γ release from clone C111 [1, 7]: < 7.8 pg/mL
IFN-γ release from clone C111 [1, 8]: < 7.8 pg/mL

DDTLTLQAAGLVPKAALLLRA [COA-1-derived overlapping peptide]
IFN-γ release from clone C111 [2, 9]: < 7.8 pg/mL
IFN-γ release from clone C111 [2, 10]: < 7.8 pg/mL
IFN-γ release from clone C111 [2, 11]: < 7.8 pg/mL
IFN-γ release from clone C111 [2, 12]: 16 pg/mL
IFN-γ release from clone C111 [2, 13]: 11 pg/mL
IFN-γ release from clone C111 [1, 4]: < 7.8 pg/mL
IFN-γ release from clone C111 [1, 5]: < 7.8 pg/mL
IFN-γ release from clone C111 [1, 6]: < 7.8 pg/mL
IFN-γ release from clone C111 [1, 7]: 33 pg/mL
IFN-γ release from clone C111 [1, 8]: 22 pg/mL

FSTFPPTLYQDDTLTLQAAG (listed as Homo sapiens) [COA-1-derived overlapping peptide]
IFN-γ release from clone C111 [2, 9]: < 7.8 pg/mL
IFN-γ release from clone C111 [2, 10]: 69 pg/mL
IFN-γ release from clone C111 [2, 11]: < 7.8 pg/mL
IFN-γ release from clone C111 [2, 12]: 236 pg/mL
IFN-γ release from clone C111 [2, 13]: 105 pg/mL
IFN-γ release from clone C111 [1, 4]: 79 pg/mL
IFN-γ release from clone C111 [1, 5]: 296 pg/mL
IFN-γ release from clone C111 [1, 6]: < 7.8 pg/mL
IFN-γ release from clone C111 [1, 7]: 397 pg/mL
IFN-γ release from clone C111 [1, 8]: 226 pg/mL
cytokine release from C111 T cells [3]: stimulated significant cytokine release

LQAAGLVPKAALLLRARRAP [COA-1-derived overlapping peptide]
IFN-γ release from clone C111 [2, 9]: < 7.8 pg/mL
IFN-γ release from clone C111 [2, 10]: < 7.8 pg/mL
IFN-γ release from clone C111 [2, 11]: < 7.8 pg/mL
IFN-γ release from clone C111 [2, 12]: 12 pg/mL
IFN-γ release from clone C111 [2, 13]: 21 pg/mL
IFN-γ release from clone C111 [1, 4]: < 7.8 pg/mL
IFN-γ release from clone C111 [1, 5]: < 7.8 pg/mL
IFN-γ release from clone C111 [1, 6]: < 7.8 pg/mL
IFN-γ release from clone C111 [1, 7]: 32 pg/mL
IFN-γ release from clone C111 [1, 8]: 52 pg/mL

TLYQDDTLTLQAAGLVPKAA (listed as Homo sapiens) [COA-1-derived overlapping peptide]
IFN-γ release from clone C111 [2, 9]: < 7.8 pg/mL
IFN-γ release from clone C111 [2, 10]: < 7.8 pg/mL
IFN-γ release from clone C111 [2, 11]: < 7.8 pg/mL
IFN-γ release from clone C111 [2, 12]: 159 pg/mL
IFN-γ release from clone C111 [2, 13]: 51 pg/mL
IFN-γ release from clone C111 [1, 4]: < 7.8 pg/mL
IFN-γ release from clone C111 [1, 5]: < 7.8 pg/mL
IFN-γ release from clone C111 [1, 6]: < 7.8 pg/mL
IFN-γ release from clone C111 [1, 7]: 326 pg/mL
IFN-γ release from clone C111 [1, 8]: 79 pg/mL
cytokine release from C111 T cells [3]: stimulated significant cytokine release
